Experimental data taken from US3950354A, “Imidazolylacetic acid amides” (Bayer Aktiengesellschaft, priority 1972, dated 1976).
≈ marks a conversion by molar mass, not a printed value. Like-named read-outs stand apart in the source and are kept apart here.

Legend:
[1] = tested on: Trichophyton mentagrophytes; assay: Anti-mycotic spectrum of action in vitro, series dilution test (Trichophyton mentagrophytes); type: cell-based; conditions: read-out: Minimum inhibitory concentration
Description: (§1) Determination of the anti-mycotic spectrum of action in vitro, by the series dilution test
(§2) The nutrient substrates used were Sabouraud's milieu d'epreuve for dermatophytes and moulds, and meat broth-glucose bouillon for blastomycetes and biphase fungi.
(§3) The incubation temperature was 28°C and the incubation time was 24 to 96 hours.

[2] = tested on: Penicillium commune; assay: Anti-mycotic spectrum of action in vitro, series dilution test (Penicillium commune); type: cell-based; conditions: read-out: Minimum inhibitory concentration
Description: as §1, §2, §3

[3] = tested on: Candida albicans; assay: Candidosis of mice; type: in vivo, Mice of type SPF-CF1; conditions: oral, 50, 75, 100 and 150 mg/kg, one hour before and 7 hours after infection; 1 to 2 × 10^6 Candida cells intravenously
Description: Mice of type SPF-CF1 were intravenously infected with 1 to 2 × 10^6 Candida cells which were suspended in physiological sodium chloride solution.
One hour before and 7 hours after infection, the animals were treated orally with 50, 75, 100 and 150 mg of the compounds according to the invention/kg of body weight. Untreated control animals died of the infection, 3 to 6 days after infection.

[4] = tested on: Candida albicans; assay: Anti-mycotic spectrum of action in vitro, series dilution test (Candida albicans); type: cell-based; conditions: read-out: Minimum inhibitory concentration
Description: as §1, §2, §3

[5] = tested on: Aspergillus niger; assay: Anti-mycotic spectrum of action in vitro, series dilution test (Aspergillus niger); type: cell-based; conditions: * = 90% inhibition of growth, read-out: Minimum inhibitory concentration
Description: as §1, §2, §3

[6] = tested on: Microsporon felineum; assay: Anti-mycotic spectrum of action in vitro, series dilution test (Microsporon felineum); type: cell-based; conditions: read-out: Minimum inhibitory concentration
Description: as §1, §2, §3

[7] = n.s. = no serum added, Sabouraud's milieu d'epreuve, 28°C, 24 to 96 hours
[8] = n.s. = no serum added, meat broth-glucose bouillon, 28°C, 24 to 96 hours
[9] = n.s. = no serum added, + = 50% inhibition of growth
[10] = n.s. = no serum added, * = 90% inhibition of growth

MIC [1, 7] | MIC ([2]; 28°C, 24 to 96 hours) | MIC [4, 8] | MIC ([1]; w.s. = with 30% serum added) | MIC ([4]; w.s. = with 30% serum added) | SMILES | Action in the case of Candida albicans (survivals on 6th day after infection) [3] | other results
64 mg/L (≈ 152 µM) | > 64 mg/L | > 64 mg/L | 64 mg/L (≈ 152 µM) | > 64 mg/L | O=C(Nc1cccc(C(F)(F)F)c1)C(c1ccccc1)(c1ccccc1)n1ccnc1 [Example 4, ω,ω-diphenyl-ω-imidazolyl-(1)-acetic acid 3-trifluoromethylanilide] | – | –
32 mg/L (≈ 79.6 µM) | > 64 mg/L | – | 32 mg/L (≈ 79.6 µM) | – | Cc1cc(Cl)ccc1NC(=O)C(c1ccccc1)(c1ccccc1)n1ccnc1 [Example 5, ω,ω-diphenyl-ω-imidazolyl-(1)-acetic acid 2-methyl-4-chloro-anilide] | – | MIC [4, 9]: 8 mg/L; MIC ([4]; w.s. = with 30% serum added, + = 50% inhibition of growth): 64 mg/L
– | – | – | 8 mg/L (≈ 18.9 µM) | – | O=C(Nc1ccc(Cl)cc1Cl)C(c1ccccc1)(c1ccccc1)n1ccnc1 [Example 6, ω,ω-diphenyl-ω-imidazolyl-(1)-acetic acid 2,4-dichloroanilide] | – | MIC ([5]; n.s. = no serum added): 4 mg/L (≈ 9.47 µM); MIC ([5]; w.s. = with 30% serum added): 8 mg/L (≈ 18.9 µM); MIC [1, 10]: 1 mg/L (≈ 2.37 µM); MIC ([6]; * = 90% inhibition of growth): 4 mg/L (≈ 9.47 µM); MIC ([2]; * = 90% inhibition of growth): 64 mg/L (≈ 152 µM); MIC [4, 10]: 1 mg/L (≈ 2.37 µM); MIC ([4]; w.s. = with 30% serum added, * = 90% inhibition of growth): 32 mg/L (≈ 75.8 µM)

The next lines start with the compound.

SMILES | MIC [1, 7] | MIC ([2]; 28°C, 24 to 96 hours) | MIC [4, 8] | MIC ([1]; w.s. = with 30% serum added) | MIC ([4]; w.s. = with 30% serum added) | Action in the case of Candida albicans (survivals on 6th day after infection) [3] | other results
O=C(N1CCS(=O)(=O)CC1)C(c1ccc(Cl)cc1)(c1ccc(Cl)cc1)n1ccnc1 [Example 2, [ω,ω-di(4-chlorophenyl)-ω-imidazolyl-(1)-methylcarbonyl-(4)]-1,4-thiazine dioxide] | 100 mg/L (≈ 215 µM) | > 100 mg/L | > 100 mg/L | – | – | + (50% survivals on 6th day after infection) | –
O=C(NC1CCCCC1)C(c1ccccc1)(c1ccccc1)n1ccnc1 [Example 7, ω,ω-diphenyl-ω-imidazolyl-(1)-acetic acid cyclohexylamide] | – | > 64 mg/L | – | > 64 mg/L | 8 mg/L (≈ 22.3 µM) | ++ (60 to 80% survivials on 6th day after infection) | MIC [1, 10]: 32 mg/L (≈ 89 µM); MIC [4, 10]: 4 mg/L (≈ 11.1 µM)
O=C(N1CCS(=O)(=O)CC1c1ccccc1)C(c1ccc(Cl)cc1)(c1ccc(Cl)cc1)n1ccnc1 (stereo not drawn) [Example 11, 4-[ω,ω-di-(4-chlorophenyl)-ω-imidazolyl-(1)-methylcarbonyl]-3-phenyl-1,4-thiazine dioxide] | 32 mg/L (≈ 59.2 µM) | > 64 mg/L | > 64 mg/L | 32 mg/L (≈ 59.2 µM) | > 64 mg/L | – | –
CCOC(=O)N1CCN(C(=O)C(c2ccccc2)(c2ccccc2)n2ccnc2)CC1 [Example 12, 4-[ω,ω-diphenyl-ω-imidazolyl-(1)-methylcarbonyl]-1-ethoxycarbonyl-piperazine] | – | > 64 mg/L | – | – | > 64 mg/L | + (50% survivals on 6th day after infection) | MIC [1, 9]: 64 mg/L; MIC [4, 9]: 64 mg/L
O=C(N1CCN(c2ccccc2Cl)CC1)C(c1ccccc1)(c1ccccc1)n1ccnc1 [Example 13, 4-[ω,ω-diphenyl-ω-imidazolyl-(1)-methylcarbonyl]-1-o-chlorophenyl-piperazine] | 10 mg/L (≈ 21.9 µM) | > 100 mg/L | > 100 mg/L | 40 mg/L (≈ 87.5 µM) | – | – | MIC ([5]; n.s. = no serum added): 1 mg/L (≈ 2.19 µM); MIC ([5]; w.s. = with 30% serum added): 100 mg/L (≈ 219 µM); MIC ([6]; 28°C, 24 to 96 hours): 100 mg/L (≈ 219 µM)
